This test relates to influenza virus NS1 protein levels. Type of test: cell-based.

For `CO[C@H]1C[C@@H]2CC[C@@H](C)[C@@](O)(O2)C(=O)C(=O)N2CCCC[C@H]2C(=O)O[C@H]([C@H](C)C[C@@H]2CC[C@@H](O)[C@H](OC)C2)CC(=O)[C@H](C)/C=C(\C)[C@@H](O)[C@@H](OC)C(=O)[C@H](C)C[C@H](C)/C=C/C=C/C=C/1C` [rapamycin], the “viral protein levels in REDD1+/+ and REDD1−/− cells” value is recorded as “down-regulated viral protein levels”. For the same molecule, for the setting “Fig. S7”, the “influenza virus NS1 protein levels” value is listed as “reduced influenza virus NS1 protein levels”.
For `CCN(CC)CCCC(C)Nc1ccnc2cc(Cl)ccc12` (stereo not drawn) [chloroquine], the “viral protein levels in REDD1−/− cells” value (autophagy inhibitor treatment, Fig. S13) was “did not affect viral protein levels”.
